Columns and labels:
Assay in all cases: relative viability (nuclei count vs DMSO), 5 days (fraction); higher = more cells survive
[1] = compound: C=CC(=O)N1CCC[C@@H](n2nc(-c3ccc(Oc4ccccc4)cc3)c3c(N)ncnc32)C1 [Ibrutinib] + C[C@@H](Oc1cc(-c2cnn(C3CCNCC3)c2)cnc1N)c1c(Cl)ccc(F)c1Cl [Crizotinib] (partner 1 µM)
How it was run: (§1)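 After 5 days of treatment, lung cancer cells in 1536-well plates were fixed and stained in a single step (final 0.05% Triton X-100, 1% formaldehyde, 1 ug/ml Hoechst) and their nuclei counted on 4× images. Treatment had been applied by pin tool the day after seeding as one drug alone or as a fixed anchor-drug dose with five library-drug doses (not always all listed) in √10 steps. Relative viability is the nuclei count of treated wells divided by that of vehicle wells, and values are medians of duplicate plates.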

[2] = compound: C=CC(=O)Nc1cc(-n2c(=O)ccc3cnc4ccc(-c5ccc(NS(C)(=O)=O)cc5)cc4c32)ccc1C [BMX-IN-1] + O=C(c1cc(Cc2n[nH]c(=O)c3ccccc23)ccc1F)N1CCN(C(=O)C2CC2)CC1 [Olaparib] (partner 8 µM)
How it was run: as §1

[3] = compound: C=CC(=O)Nc1cc(-n2c(=O)ccc3cnc4ccc(-c5ccc(NS(C)(=O)=O)cc5)cc4c32)ccc1C [BMX-IN-1] + CS(=O)(=O)CCNCc1ccc(-c2ccc3ncnc(Nc4ccc(OCc5cccc(F)c5)c(Cl)c4)c3c2)o1 [Lapatinib] (partner 2 µM)
How it was run: as §1

[4] = compound: C=CC(=O)N1CCC[C@@H](n2nc(-c3ccc(Oc4ccccc4)cc3)c3c(N)ncnc32)C1 [Ibrutinib] + CS(=O)(=O)N1CCN(Cc2cc3nc(-c4cccc5[nH]ncc45)nc(N4CCOCC4)c3s2)CC1 [Pictilisib] (partner 1 µM)
How it was run: as §1

Row | Cell Line | relative viability ([1]; first compound 0.005 µM) | relative viability ([1]; first compound 0.01581 µM) | relative viability ([1]; first compound 0.05 µM) | relative viability ([1]; first compound 0.1581 µM) | relative viability ([1]; first compound 0.5 µM) | relative viability ([2]; first compound 0.02 µM) | relative viability ([2]; first compound 0.2 µM) | relative viability ([2]; first compound 0.6325 µM) | relative viability ([2]; first compound 2 µM) | relative viability ([3]; first compound 0.02 µM) | relative viability ([3]; first compound 0.2 µM) | relative viability ([3]; first compound 0.6325 µM) | relative viability ([3]; first compound 2 µM) | relative viability ([4]; first compound 0.005 µM) | relative viability ([4]; first compound 0.01581 µM) | relative viability ([4]; first compound 0.05 µM) | relative viability ([4]; first compound 0.1581 µM) | relative viability ([4]; first compound 0.5 µM)
1 | NCI-H2085 | 0.92 | 0.852 | 0.772 | 0.918 | 0.706 | 0.807 | 0.704 | 0.782 | 0.746 | 0.831 | 0.821 | 0.764 | 0.763 | 0.432 | 0.473 | 0.48 | 0.369 | 0.417
2 | HCC-78 | 0.347 | 0.328 | 0.289 | 0.335 | 0.247 | 1.09 | 0.744 | 0.804 | 0.913 | 0.812 | 0.835 | 0.663 | 0.878 | 0.199 | 0.202 | 0.177 | 0.159 | 0.172
3 | NCI-H647 | 1.03 | 1.07 | 1.13 | 1.06 | 0.993 | 0.687 | 1.04 | 0.553 | 0.574 | 1.3 | 0.957 | 1.43 | 0.949 | 0.28 | 0.418 | 0.357 | 0.323 | –
4 | NCI-H1299 | 1 | 0.897 | 0.957 | 0.977 | 0.965 | 1.05 | 0.978 | 0.992 | 1.03 | 1 | 0.986 | 1.06 | 0.962 | 0.571 | 0.555 | 0.773 | 0.699 | 0.854
5 | LU99A | 0.522 | 0.605 | 0.619 | 0.644 | 0.644 | 0.25 | 0.259 | 0.265 | 0.229 | 1.15 | 1.04 | 0.981 | 0.913 | 0.274 | 0.34 | 0.355 | 0.324 | 0.336
6 | A549 | 0.814 | 0.649 | 0.639 | 0.708 | 0.661 | 0.286 | 0.392 | 0.249 | 0.306 | 1.04 | 1.47 | 1.17 | 1.02 | 0.396 | 0.416 | 0.521 | 0.586 | 0.499
7 | HARA | 1.16 | 0.913 | 1.03 | 1.08 | 0.883 | 1.01 | 0.859 | 0.936 | 0.734 | 0.997 | 0.842 | 1.01 | 0.69 | 0.185 | 0.515 | 0.383 | 0.412 | 0.232
8 | NCI-H1944 | 0.99 | 0.88 | 0.963 | – | 0.782 | 0.439 | 0.414 | 0.396 | 0.435 | 0.986 | 0.866 | 0.919 | 0.921 | 0.305 | 0.334 | 0.308 | 0.317 | 0.316
9 | LCLC-103H | 1.06 | 1.03 | 1.02 | 1.06 | 1.04 | 0.883 | 0.886 | 0.834 | 0.741 | – | – | – | – | 0.72 | 0.535 | 0.557 | 0.517 | 0.653
10 | NCI-H1792 | 0.979 | 0.989 | 1.13 | 0.654 | 0.961 | 0.492 | 0.436 | 0.491 | 0.322 | 0.834 | 1.04 | 0.937 | 0.922 | 0.286 | 0.25 | 0.23 | 0.295 | 0.242
11 | Calu-6 | 0.911 | 0.576 | 0.802 | 0.723 | 0.872 | 0.533 | 0.656 | 0.607 | 0.565 | 1 | 1.44 | 1.33 | 1.06 | 0.854 | 0.843 | 0.949 | 1.05 | –
12 | SW 900 | – | – | – | – | – | 1.15 | 0.938 | 0.819 | 0.782 | – | – | – | – | – | – | – | – | –
13 | LOU-NH91 | 0.697 | 0.557 | 0.666 | 0.738 | 0.526 | – | 0.978 | 0.946 | 0.862 | – | 0.792 | 0.819 | 0.819 | 0.451 | 0.475 | 0.512 | 0.487 | 0.487
14 | HCC-366 | 0.623 | 0.525 | 0.506 | 0.45 | 0.514 | 0.416 | 0.406 | 0.442 | 0.361 | 1.53 | 1.65 | 1.07 | 1.12 | – | 0.125 | 0.141 | 0.124 | 0.14
15 | CAL-12T | – | 0.589 | 0.582 | 0.718 | 0.301 | 0.822 | 0.71 | 0.695 | 0.759 | 0.692 | 0.722 | 0.795 | 0.613 | 0.232 | 0.448 | 0.394 | 0.355 | 0.495
16 | NCI-H1355 | – | 0.957 | 0.971 | 1.15 | 0.827 | 0.805 | 0.813 | 0.713 | 0.749 | 1.14 | 1.09 | 1.08 | 0.982 | – | 0.474 | 0.481 | 0.26 | 0.343
17 | ABC-1 | 1.21 | 1.03 | 1.57 | 1.56 | 1.03 | 0.749 | 1.02 | 0.815 | 0.978 | 1.46 | 1.23 | 1.16 | 1.28 | 0.528 | 0.743 | 0.716 | 0.513 | 0.615
18 | NCI-H2405 | – | 0.886 | 0.779 | 0.824 | 0.8 | 0.958 | 0.958 | 0.977 | 0.865 | 1.15 | 1.04 | 1.09 | 1.05 | 0.33 | 0.384 | 0.282 | – | 0.485
19 | NCI-H1648 | – | – | – | – | – | 0.994 | 0.849 | 0.958 | 0.925 | – | – | – | – | – | – | – | – | –
20 | NCI-H650 | – | 0.656 | – | 0.863 | 0.805 | 0.366 | 0.379 | 0.469 | 0.456 | 0.862 | 1.11 | 0.982 | 0.858 | – | 0.883 | – | 0.973 | 0.678

From the supplement of paper PMC10307832
